Source: patent publication EP3727588B1, “ACTIVATOR PEPTIDES OF THE ENZYME ADAM 10 AND RELATED USES IN THE TREATMENT OF ALZHEIMER'S DISEASE” (UNIVERSITA' DEGLI STUDI DI MILANO, priority 2017, dated 2019)
Values joined by “and” are separate entries in the source; they are usually repeats but may differ in a detail not shown here. Equal values may be shown once. Peptide text beside a SMILES is read from it.

Legend:
[1] = test system: T1, ADAM10/AP2 complex (Rattus norvegicus); assay: co-immunoprecipitation of ADAM10 with AP2 (α-adaptin) in acute hippocampal slices; format: cell-based; conditions: 10 µM, 30 min
T1 construct: endogenous in cells; host or cells: primary hippocampal neurons of rat embryos, DIV14
Protocol: (§1) The acute hippocampal slices were obtained from rat brain. After carefully removing the meninges, the hippocampus was isolated and dissected using the McIlwain tissue chopper. The hippocampal slices were then transferred into supports containing Krebs buffer, in the presence of a constant flow of 95% O2 and 5% CO2 5% (v/v). The acute slices were kept for 45 min at ambient temperature before proceeding with treatment with the peptide.
(§2) For the treatments of the acute hippocampal slices, all the peptides were diluted in Krebs buffer at a concentration of 10µM. The treatments were performed for 30 minutes and subsequently the sample was immediately frozen.
(§3) For the co-immunoprecipitation experiments, aliquots of 40-100 µg of lysate were incubated at 4°C in RIA 1X buffer (NaCl 200 mM, EDTA 10 mM, Na2HPO4 10 mM, Nonidet P-40, 0.5% and 0.1% SDS) in a final volume of 150 µl with 1-2 µg of antibody. The following day the protein complex A/G (Santa Cruz Biotechnology) was added, conjugated with agarose marbles, and the incubation was continued for 2 hours. After three washes with RIA buffer the samples were loaded onto SDS-PAGE and analysed through Western Blot.
(§4) The quantization of the Western Blot analyses was performed through an image analysis program (ImageLab -BioRad). The levels of proteins were expressed as optical density (OD) related to the different measurements and were normalized on respective tubulin levels.
(§5) The samples were then processed, and the total homogenate was used to evaluate the interaction levels between ADAM10 and the complex AP2. The co-immunoprecipitation experiment (co-IP), performed using an anti-ADAM10 antibody, made it possible to verify that two of the three peptides (PEP2 (SEQ ID NO:2) and PEP3 (SEQ ID NO:1)) were able to interfere with the interaction between ADAM10 and α-adaptin, one of the subunits that constitutes the complex AP2 (Figure 1A).

[2] = target: T2, ADAM10/AP2 complex (Rattus norvegicus, UniProt P62944); assay: as above; format: cell-based; conditions: 10 µM, 30 minutes
T2 construct: endogenous in cells; host or cells: primary hippocampal neurons of rat embryos, DIV14
Protocol: as §1, §2, §3, §4, §5

[3] = test system: dendritic spines of the hippocampal neurons; assay: dendritic spine morphology and density in hippocampus, C57BL/6 mice; format: in vivo; conditions: 14 days' treatment
Protocol: (§6) C57/BL6 adult mice were treated for 14 days with daily intraperitoneal injection of saline solution or peptides at a dose of 3 nmol/g (6-10 animals per experimental group). The animals were maintained in an enclosure at 25 ± 2 °C with an alternating light/dark cycle of 12 hours and had free access to water and food in the form of pellets (standard diet).
For the dendritic spine analysis, the protocol used is the one previously described by Kim et al, and envisages the use of DilDye lipophilic tracer (Invitrogen) to allow the dendritic spines to be viewed under the confocal microscope. The analysis of the dimensions and morphology of the spines was performed with ImageJ software.
The spines were classified, based on their morphology, into three different categories: thin, stubby (without a well-defined "neck") and mushroom shaped. To evaluate the possible effect induced by PEP3 on the spine morphology, two animals for each experimental group were perfused after 14 days of treatment and the brain was post-fixed in PFA and cut with a vibratome. To view the dendritic spines the lipophilic tracer DilDye was used. From the images acquired from the confocal microscope the number, length and width of the head of the dendritic spines of the hippocampal neurons were measured.

[4] = blood count and platelet count after 14 days' treatment; format: in vivo, mice; set-up: key to Aggregate s: +, ++, +++ considering the presence of platelet aggregates detected in the blood smear that make the analysis difficult; +, ++, +++ considering the presence of platelet aggregates detected in the blood smear that make the analysis difficult; +, ++, +++ considering the presence of platelet aggregates detected in the blood smear that make the analysis difficult; key to Estimate Plt: A= appropriate platelet estimate
Protocol: as §6
The blood, collected through cardiac puncture, was analysed with a laser counter (ADVIA 120, Siemens) using specific software for the murine species. From each sample a blood smear was prepared, stained with the May Grünwald-Giemsa method, and used for the morphological analysis of the leukocytes, the red blood cells and the platelet estimate. After the automatic counting of the cells and the preparation of the smear, all the samples were centrifuged and the plasma was transferred into separate test tubes. The analysis of the plasma samples was performed through automatic spectrophotometer (ILAB-300, Instrumentation Laboratory). All the results were compared with the values provided by the company Charles River for mice of the same strain and age.
The range values are provided by Charles River for C57BL mice aged between 56-70 days, whose blood was collected by cardiac puncture after euthanasia.

[5] = test system: GFAP and Iba-1 positive cells; assay: neuro-inflammation: GFAP and Iba-1 positive cells in hippocampus; format: in vivo, mice; conditions: 5 fields, 14 days' treatment
Protocol: as §6
After the sacrifice of the treated animal, a portion of liver and a brain hemisphere were fixed in 10% formalin for 48 hours, and included in paraffin. From each block of paraffin, serial sections 5/6µm thick were obtained. The sections were then stained with haematoxylin-eosin or processed through immunohistochemistry.
Subsequently, to evaluate the presence of neuro-inflammation, 5 different fields of the hippocampus were considered to verify any presence of GFAP and Iba-1 positive cells.

[6] = individual animal, 14 days, daily intraperitoneal 3 nmol/g

T1 sequence (P18484 whole entry): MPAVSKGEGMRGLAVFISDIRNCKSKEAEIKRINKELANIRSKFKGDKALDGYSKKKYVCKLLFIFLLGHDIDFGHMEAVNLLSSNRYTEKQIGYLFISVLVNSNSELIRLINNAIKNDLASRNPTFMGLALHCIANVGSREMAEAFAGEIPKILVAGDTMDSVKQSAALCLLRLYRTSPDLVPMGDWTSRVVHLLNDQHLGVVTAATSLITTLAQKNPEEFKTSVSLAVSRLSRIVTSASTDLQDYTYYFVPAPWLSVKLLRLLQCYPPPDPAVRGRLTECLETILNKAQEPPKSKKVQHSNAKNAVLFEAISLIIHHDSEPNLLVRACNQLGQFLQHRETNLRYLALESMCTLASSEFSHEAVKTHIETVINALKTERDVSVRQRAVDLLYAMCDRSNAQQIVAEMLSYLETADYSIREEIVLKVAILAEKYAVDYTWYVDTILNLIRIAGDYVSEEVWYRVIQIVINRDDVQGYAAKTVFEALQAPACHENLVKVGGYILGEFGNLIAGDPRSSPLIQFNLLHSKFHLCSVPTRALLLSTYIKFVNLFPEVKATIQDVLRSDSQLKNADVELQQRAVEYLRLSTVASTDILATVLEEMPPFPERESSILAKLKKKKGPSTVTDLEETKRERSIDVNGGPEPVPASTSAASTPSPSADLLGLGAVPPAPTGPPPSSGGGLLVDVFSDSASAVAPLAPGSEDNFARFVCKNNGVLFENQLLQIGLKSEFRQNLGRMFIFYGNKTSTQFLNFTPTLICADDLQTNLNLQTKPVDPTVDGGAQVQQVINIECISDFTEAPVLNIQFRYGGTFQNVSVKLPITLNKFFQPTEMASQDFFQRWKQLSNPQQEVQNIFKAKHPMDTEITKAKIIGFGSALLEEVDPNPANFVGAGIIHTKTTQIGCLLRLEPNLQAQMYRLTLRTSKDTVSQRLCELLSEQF
T1 sequence (P62744 whole entry, further chain): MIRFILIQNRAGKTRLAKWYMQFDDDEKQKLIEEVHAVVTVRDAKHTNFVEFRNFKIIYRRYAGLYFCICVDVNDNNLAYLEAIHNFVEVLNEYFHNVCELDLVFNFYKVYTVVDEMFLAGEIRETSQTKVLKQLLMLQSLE
T1 sequence (P84092 whole entry, further chain): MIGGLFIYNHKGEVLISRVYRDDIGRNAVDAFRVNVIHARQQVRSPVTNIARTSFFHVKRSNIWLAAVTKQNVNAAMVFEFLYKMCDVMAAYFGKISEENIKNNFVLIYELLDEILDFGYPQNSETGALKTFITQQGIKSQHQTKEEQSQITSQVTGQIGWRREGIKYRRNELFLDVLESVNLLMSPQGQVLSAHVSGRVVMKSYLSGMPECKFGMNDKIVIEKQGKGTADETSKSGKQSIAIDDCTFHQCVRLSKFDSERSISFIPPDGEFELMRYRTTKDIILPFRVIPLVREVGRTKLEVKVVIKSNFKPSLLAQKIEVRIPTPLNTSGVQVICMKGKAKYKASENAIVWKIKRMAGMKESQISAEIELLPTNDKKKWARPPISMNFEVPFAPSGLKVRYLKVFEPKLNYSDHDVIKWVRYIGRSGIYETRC
T1 sequence (P62944 whole entry, further chain): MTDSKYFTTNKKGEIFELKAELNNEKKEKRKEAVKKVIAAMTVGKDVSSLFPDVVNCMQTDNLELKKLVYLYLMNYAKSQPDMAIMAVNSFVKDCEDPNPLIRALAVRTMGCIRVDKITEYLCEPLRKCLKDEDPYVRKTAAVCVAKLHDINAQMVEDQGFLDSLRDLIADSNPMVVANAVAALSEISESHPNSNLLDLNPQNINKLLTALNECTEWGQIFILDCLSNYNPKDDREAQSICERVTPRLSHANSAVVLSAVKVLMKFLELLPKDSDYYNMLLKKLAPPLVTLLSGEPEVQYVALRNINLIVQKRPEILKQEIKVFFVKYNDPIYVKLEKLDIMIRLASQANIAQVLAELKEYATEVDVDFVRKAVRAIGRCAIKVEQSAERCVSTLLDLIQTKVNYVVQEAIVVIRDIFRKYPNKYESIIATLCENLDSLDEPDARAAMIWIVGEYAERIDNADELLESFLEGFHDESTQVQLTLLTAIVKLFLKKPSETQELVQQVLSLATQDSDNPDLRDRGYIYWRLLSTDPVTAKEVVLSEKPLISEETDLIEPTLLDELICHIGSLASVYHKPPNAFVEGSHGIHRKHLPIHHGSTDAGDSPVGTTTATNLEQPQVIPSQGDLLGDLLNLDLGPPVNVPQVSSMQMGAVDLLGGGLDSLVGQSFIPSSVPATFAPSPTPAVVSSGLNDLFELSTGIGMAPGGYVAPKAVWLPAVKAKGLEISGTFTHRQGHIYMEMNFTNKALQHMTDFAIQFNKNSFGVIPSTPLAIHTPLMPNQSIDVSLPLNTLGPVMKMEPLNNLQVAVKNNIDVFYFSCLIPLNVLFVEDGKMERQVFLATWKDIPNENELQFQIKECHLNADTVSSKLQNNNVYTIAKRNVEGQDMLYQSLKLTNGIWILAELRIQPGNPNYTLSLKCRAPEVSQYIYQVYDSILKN
T2 sequence (P18484 whole entry): as the sequence (P18484 whole entry) above
T2 sequence (P62744 whole entry, further chain): as the sequence (P62744 whole entry, further chain) above
T2 sequence (P84092 whole entry, further chain): as the sequence (P84092 whole entry, further chain) above
T2 sequence (P62944 whole entry): as the sequence (P62944 whole entry, further chain) above

N=C(N)NCCC[C@H](NC(=O)CNC(=O)[C@@H](N)Cc1ccc(O)cc1)C(=O)N[C@@H](CCCCN)C(=O)N[C@@H](CCCCN)C(=O)N[C@@H](CCCNC(=N)N)C(=O)N[C@@H](CCCNC(=N)N)C(=O)N[C@@H](CCC(N)=O)C(=O)N[C@@H](CCCNC(=N)N)C(=O)N[C@@H](CCCNC(=N)N)C(=O)N[C@@H](CCCNC(=N)N)C(=O)NCC(=O)NCC(=O)N[C@@H](CO)C(=O)NCC(=O)N[C@@H](CCC(N)=O)C(=O)N1CCC[C@H]1C(=O)N1CCC[C@H]1C(=O)N[C@@H](CCCNC(=N)N)C(=O)N[C@@H](CCC(N)=O)C(=O)N[C@@H](CCCNC(=N)N)C(=O)N1CCC[C@H]1C(=O)N[C@@H](CCCNC(=N)N)C(=O)NCC(=O)O [PEP3] (H-YGRKKRRQRRRGGSGQPPRQRPRG-OH)
PEP/inPEP ratio of optical density (OD), ADAM10/AP2 complex (α-adaptin) [1]: 37.40 ± 21.76% | reduction of the interaction between ADAM10 and α-adaptin [2]: 62.6% | density of the dendritic spines [3]: 10.30±1.11 n. of spines/10µm | length of mushroom shaped spines [3]: 0.73±0.02 | length of the spines [3]: 0.75±0.02 µm | percentage of mushroom shaped spines [3]: 28.83 ± 2.18% | percentage of stubby spines [3]: 45.25 ± 2.03% | percentage of thin spines [3]: 25.92 ± 1.68% | width of the head of spines [3]: 0.75±0.01 µm | (Ht) ([4]; group mean): 46.2% | Hb ([4]; group mean): 11.8 g/dL | Mean Corpuscula r Hb (MCH) ([4]; group mean): 13.5 pg | Mean Corpuscula r Hb Conc. MCHC ([4]; group mean): 25.6% | Platelet count ([4]; group mean): 999000 µL⁻¹ | Red blood cells ([4]; group mean): 8.74e+06 µL⁻¹ | Red cell distribution width (RDW) ([4]; group mean): 19.5% | Vol. Mean Corp. Vol. (MCV) ([4]; group mean): 52.9 fL | (Ht) ([4]; group median): -46.9% | Hb ([4]; group median): -11.9 g/dL | Mean Corpuscula r Hb Conc. MCHC ([4]; group median): -25.8% | Platelet count ([4]; group median): -1.082e+06 µL⁻¹ | Red blood cells ([4]; group median): -8.8e+06 µL⁻¹ | Red cell distribution width (RDW) ([4]; group median): -19.7% | Vol. Mean Corp. Vol. (MCV) ([4]; group median): -53.1 fL | Estimate Plt ([4]; individual animal, blood smear, first part of cell): A | Aggregate s ([4]; individual animal, blood smear, second part of cell): +++ | (Ht) [4, 6]: 41.5% and 47.4% and 48.5% and 48% and 46.3% and 45.7% | Hb [4, 6]: 10.9 g/dL and 11.7 g/dL and 12.5 g/dL and 11.9 g/dL (3×) | Mean Corpuscula r Hb (MCH) [4, 6]: 13.4 Pg (2×) and 13.8 Pg and 13.3 Pg and 13.5 Pg and 13.6 Pg | Mean Corpuscula r Hb Conc. MCHC [4, 6]: 26.3% and 24.7% and 25.8% and 24.8% and 25.7% and 26% | Platelet count [4, 6]: 861000 µL⁻¹ and 711000 µL⁻¹ and 1.333e+06 µL⁻¹ and 391000 µL⁻¹ and 1.302e+06 µL⁻¹ and 1.394e+06 µL⁻¹ | Red blood cells [4, 6]: 8.14e+06 µL⁻¹ and 8.75e+06 µL⁻¹ and 9.04e+06 µL⁻¹ and 8.94e+06 µL⁻¹ and 8.84e+06 µL⁻¹ and 8.72e+06 µL⁻¹ | Red cell distribution width (RDW) [4, 6]: 18.7% and 19.3% and 19.9% (2×) and 19.7% (2×) | Vol. Mean Corp. Vol. (MCV) [4, 6]: 51 fL and 54.2 fL and 53.7 fL (2×) and 52.4 fL (2×) | number of GFAP positive cells [5]: 37.17±3.54 | number of Iba-1 positive cells [5]: 7.33±1.63
